Laboratory results as given in ChEMBL document CHEMBL3885861, “Open TG-GATES”.

Species: Rattus norvegicus
Assay: Open TG-GATES - Regimen: Daily Repeat
Type: toxicity, organism-based, Sprague-Dawley
Parameters: regimen Daily Repeat, gender Male, age 6 weeks
Details: in vivo, po, 30 mg/kg, route gavage, dose level Low; for APTT / Bas / Eos / Fbg / Hb / Ht / Lym / MCH / MCHC / MCV / Mono / Neu / PT / Plat / RBC / Ret / WBC: tissue Blood; for KIDNEY_L / KIDNEY_R / KIDNEY_TOTAL: tissue Kidney; for LIVER: tissue Liver; for A/G / ALP / ALT / AST / BUN / CRE / Ca / Cl / DBIL / GLC / IP / K / LDH / Na / PL / RALB / TBIL / TC / TG / TP / gamma-GTP: tissue Plasma

## CCc1oc2ccccc2c1C(=O)c1cc(I)c(O)c(I)c1 [BENZIODARONE]
72 h, time 3 day
  TERMINAL_BW: 242 g
  APTT: 17.5 s
  Bas: 0%
  Eos: 1%
  Fbg: 216.8 mg/dL
  Hb: 13.8 g/dL
  Ht: 40.8%
  Lym: 79.4%
  MCH: 21.9 pg
  MCHC: 33.8%
  MCV: 64.7 fL
  Mono: 6.4%
  Neu: 13.2%
  PT: 11.7 s
  Plat: 115.3 x10_4/uL
  RBC: 629.4 x10_4/ul
  Ret: 6.5%
  WBC: 104.5 x10_2/uL
  KIDNEY_L: 1.1 g
  KIDNEY_R: 1.1 g
  KIDNEY_TOTAL: 2.2 g
  LIVER: 12.7 g
  A/G: 1.8
  ALP: 1087.2 IU/L
  ALT: 42.6 IU/L
  AST: 67.4 IU/L
  BUN: 16.8 mg/dL
  CRE: 0.5 mg/dL
  Ca: 10.7 mg/dL
  Cl: 104 meq/L
  DBIL: 0.016 mg/dL
  GLC: 191.2 mg/dL
  IP: 7.8 mg/dL
  K: 4.5 meq/L
  LDH: 103.8 IU/L
  Na: 141 meq/L
  PL: 155.4 mg/dL
  RALB: 3.6 g/dL
  TBIL: 0.3 mg/dL
  TC: 79.4 mg/dL
  TG: 74.4 mg/dL
  TP: 5.7 g/dL
  gamma-GTP: 1.6 IU/L
[…], time 7 day
  TERMINAL_BW: 274.9 g
  APTT: 17.5 s
  Bas: 0%
  Eos: 1%
  Fbg: 221.6 mg/dL
  Hb: 14.2 g/dL
  Ht: 41.8%
  Lym: 84.6%
  MCH: 21.5 pg
  MCHC: 34%
  MCV: 63.2 fL
  Mono: 4.6%
  Neu: 10%
  PT: 11.9 s
  Plat: 117.9 x10_4/uL
  RBC: 661.6 x10_4/ul
  Ret: 4.7%
  WBC: 111.9 x10_2/uL
  KIDNEY_L: 1.2 g
  KIDNEY_R: 1.2 g
  KIDNEY_TOTAL: 2.4 g
  LIVER: 14.7 g
  A/G: 1.7
  ALP: 918 IU/L
  ALT: 32.6 IU/L
  AST: 63.4 IU/L
  BUN: 18 mg/dL
  CRE: 0.6 mg/dL
  Ca: 10.8 mg/dL
  Cl: 103.4 meq/L
  DBIL: 0.018 mg/dL
  GLC: 191.8 mg/dL
  IP: 7.3 mg/dL
  K: 4.6 meq/L
  LDH: 101.6 IU/L
  Na: 139.6 meq/L
  PL: 153.2 mg/dL
  RALB: 3.7 g/dL
  TBIL: 0.3 mg/dL
  TC: 73.6 mg/dL
  TG: 110.6 mg/dL
  TP: 5.9 g/dL
  gamma-GTP: 2 IU/L
[…], time 14 day
  TERMINAL_BW: 323 g
  APTT: 18.1 s
  Bas: 0%
  Eos: 1%
  Fbg: 223.6 mg/dL
  Hb: 14.6 g/dL
  Ht: 43.4%
  Lym: 82.8%
  MCH: 20.5 pg
  MCHC: 33.6%
  MCV: 61.1 fL
  Mono: 5.2%
  Neu: 11.2%
  PT: 11.8 s
  Plat: 117.5 x10_4/uL
  RBC: 710 x10_4/ul
  Ret: 2.5%
  WBC: 109.1 x10_2/uL
  KIDNEY_L: 1.3 g
  KIDNEY_R: 1.3 g
  KIDNEY_TOTAL: 2.5 g
  LIVER: 15.7 g
  A/G: 1.7
  ALP: 914 IU/L
  ALT: 31.8 IU/L
  AST: 63.2 IU/L
  BUN: 19.6 mg/dL
  CRE: 0.5 mg/dL
  Ca: 10.3 mg/dL
  Cl: 105.2 meq/L
  DBIL: 0.008 mg/dL
  GLC: 200.4 mg/dL
  IP: 6.7 mg/dL
  K: 4.6 meq/L
  LDH: 109.6 IU/L
  Na: 141.2 meq/L
  PL: 152.8 mg/dL
  RALB: 3.9 g/dL
  TBIL: 0.3 mg/dL
  TC: 71.6 mg/dL
  TG: 159.4 mg/dL
  TP: 6.2 g/dL
  gamma-GTP: 1.8 IU/L
[…], time 28 day
  TERMINAL_BW: 399.3 g
  APTT: 18.9 s
  Bas: 0%
  Eos: 1.6%
  Fbg: 231.2 mg/dL
  Hb: 15.2 g/dL
  Ht: 45.4%
  Lym: 83.2%
  MCH: 19 pg
  MCHC: 33.6%
  MCV: 56.7 fL
  Mono: 4.8%
  Neu: 11%
  PT: 12 s
  Plat: 124.3 x10_4/uL
  RBC: 799.8 x10_4/ul
  Ret: 3%
  WBC: 128.8 x10_2/uL
  KIDNEY_L: 1.4 g
  KIDNEY_R: 1.4 g
  KIDNEY_TOTAL: 2.9 g
  LIVER: 18.7 g
  A/G: 1.8
  ALP: 629.8 IU/L
  ALT: 36.4 IU/L
  AST: 63.8 IU/L
  BUN: 20.2 mg/dL
  CRE: 0.7 mg/dL
  Ca: 10.9 mg/dL
  Cl: 104.2 meq/L
  DBIL: 0.01 mg/dL
  GLC: 194.4 mg/dL
  IP: 6.4 mg/dL
  K: 4.4 meq/L
  LDH: 121.4 IU/L
  Na: 139.6 meq/L
  PL: 156.6 mg/dL
  RALB: 4 g/dL
  TBIL: 0.3 mg/dL
  TC: 78.4 mg/dL
  TG: 123.8 mg/dL
  TP: 6.3 g/dL
  gamma-GTP: 1.8 IU/L
